The source of these data is US10676471B2, “Cycloalkyl-linked diheterocycle derivatives” (Pfizer Inc., priority 2014, dated 2020).

The test concerns BT20 Cell. The test can be described thus: Cancer Cell Lysate Total L-Glutamate Assay. The following applies: Homo sapiens, BT-20, 2 h, total L-glutamate in cell lysate, BT20 cells, 2 hour incubation with test compound. The format is cell-based. Put shortly: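 BT20 and other cancer lines at ~80% confluence were given fresh L-glutamine-containing medium, then treated with serially diluted compound (0.5% DMSO) for 2 hours at 37° C. Washed cells were lysed by freeze-thaw and sonication. Lysate glutamate was measured via glutamate oxidase/HRP/50 μM Amplex Red fluorescence (ex 530-560, em 585 nm); IC50 by four-parameter logistic fit.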

On to `CC(=O)Nc1nnc(C2CC[C@H](Cc3nnc(NC(=O)Cc4ccccn4)s3)C2)s1` (single isomer, unassigned) [Example 19, N-[5-({(cis)-3-[5-(acetylamino)-1,3,4-thiadiazol-2-yl]cyclopentyl}methyl)-1,3,4-thiadiazol-2-yl]-2-(pyridin-2-yl)acetamide], for which the IC50 amounted to 1470 nM.

For `CC(=O)Nc1nnc(C[C@@H]2CC[C@H](c3nnc(NC(=O)Cc4ccncn4)s3)C2)s1` (single isomer, unassigned) [Example 20], the half-inhibitory concentration (IC50) was 137 nM.

On to `CC(=O)Nc1nnc(C[C@H]2CCC(c3nnc(NC(=O)Cc4ccncn4)s3)C2)s1` (single isomer, unassigned) [Example 21, N-{5-[(cis)-3-{[5-(acetylamino)-1,3,4-thiadiazol-2-yl]methyl}cyclopentyl]-1,3,4-thiadiazol-2-yl}-2-(pyrimidin-4-yl)acetamide], for which the IC50 was > 6650 nM.

Turning to `O=C(Cc1ccccn1)Nc1nnc(C[C@H]2C[C@@H](c3nnc(NC(=O)Cc4ccccn4)s3)C2)s1` (single isomer, unassigned) [Example 22, 2-(pyridin-2-yl)-N-{5-[(cis-3-{5-[(pyridin-2-ylacetyl)amino]-1,3,4-thiadiazol-2-yl}cyclobutyl)methyl]-1,3,4-thiadiazol-2-yl}acetamide], the IC50 amounted to 1.4 nM.

With `O=C(Cc1ccccn1)Nc1nnc(C[C@H]2C[C@H](c3nnc(NC(=O)Cc4ccccn4)s3)C2)s1` (single isomer, unassigned) [Example 23, 2-(pyridin-2-yl)-N-{5-[(trans-3-{5-[(pyridin-2-ylacetyl)amino]-1,3,4-thiadiazol-2-yl}cyclobutyl)methyl]-1,3,4-thiadiazol-2-yl}acetamide], the IC50 was found to be 9.9 nM.

`CC(C)(C)C(=O)Nc1nnc(C[C@H]2CC[C@@H](c3nnc(NC(=O)C(C)(C)C)s3)C2)s1` (single isomer, unassigned) [Example 28, N-(5-{[(cis)-3-{5-[(2,2-dimethylpropanoyl)amino]-1,3,4-thiadiazol-2-yl}cyclopentyl]methyl}-1,3,4-thiadiazol-2-yl)-2,2-dimethylpropanamide]: the IC50 stood at 3020 nM.

In the case of `CC(C)(C)C(=O)Nc1nnc(C[C@@H]2CC[C@H](c3nnc(NC(=O)C(C)(C)C)s3)C2)s1` (single isomer, unassigned) [Example 29, N-(5-{[(cis)-3-{5-[(2,2-dimethylpropanoyl)amino]-1,3,4-thiadiazol-2-yl}cyclopentyl]methyl}-1,3,4-thiadiazol-2-yl)-2,2-dimethylpropanamide], the IC50 came out at 167 nM.

Turning to `C[C@H](C(=O)Nc1nnc([C@@H]2CC[C@H](Cc3nnc(NC(=O)[C@H](C)c4cccnc4)s3)C2)s1)c1cccnc1` (single isomer, unassigned) [Example 31, 2-(pyridin-3-yl)-N-(5-{[(cis)-3-(5-{[2-(pyridin-3-yl)propanoyl]amino}-1,3,4-thiadiazol-2-yl)cyclopentyl]methyl}-1,3,4-thiadiazol-2-yl)propanamide], half-maximal inhibition (IC50) required 639 nM.

`C[C@H](C(=O)Nc1nnc(C[C@H]2CC[C@@H](c3nnc(NC(=O)[C@@H](C)c4cccnc4)s3)C2)s1)c1cccnc1` (single isomer, unassigned) [Example 32, 2-(pyridin-3-yl)-N-(5-{[(cis)-3-(5-{[2-(pyridin-3-yl)propanoyl]amino}-1,3,4-thiadiazol-2-yl)cyclopentyl]methyl}-1,3,4-thiadiazol-2-yl)propanamide] displayed an IC50 of 201 nM.

As to `C[C@H](C(=O)Nc1nnc(C[C@@H]2CC[C@H](c3nnc(NC(=O)[C@@H](C)c4cccnc4)s3)C2)s1)c1cccnc1` (single isomer, unassigned) [Example 33, 2-(pyridin-3-yl)-N-(5-{[(cis)-3-(5-{[2-(pyridin-3-yl)propanoyl]amino}-1,3,4-thiadiazol-2-yl)cyclopentyl]methyl}-1,3,4-thiadiazol-2-yl)propanamide], the IC50 is 7 nM.

The compound `C[C@H](C(=O)Nc1nnc(C[C@H]2CC[C@@H](c3nnc(NC(=O)[C@H](C)c4cccnc4)s3)C2)s1)c1cccnc1` (single isomer, unassigned) [Example 34, 2-(pyridin-3-yl)-N-(5-{[(cis)-3-(5-{[2-(pyridin-3-yl)propanoyl]amino}-1,3,4-thiadiazol-2-yl)cyclopentyl]methyl}-1,3,4-thiadiazol-2-yl)propanamide] yielded an IC50 of 942 nM.

In turn, `C[C@H](C(=O)Nc1nnc([C@H]2CC[C@@H](Cc3nnc(NC(=O)[C@H](C)c4cccnc4)s3)C2)s1)c1cccnc1` (single isomer, unassigned) [Example 35, 2-(pyridin-3-yl)-N-(5-{[(cis)-3-(5-{[2-(pyridin-3-yl)propanoyl]amino}-1,3,4-thiadiazol-2-yl)cyclopentyl]methyl}-1,3,4-thiadiazol-2-yl)propanamide] displayed an IC50 of 50.7 nM.

`C[C@@H](C(=O)Nc1nnc(C[C@H]2CC[C@@H](c3nnc(NC(=O)[C@H](C)c4cccnc4)s3)C2)s1)c1cccnc1` (single isomer, unassigned) [Example 36, 2-(pyridin-3-yl)-N-(5-{[(cis)-3-(5-{[2-(pyridin-3-yl)propanoyl]amino}-1,3,4-thiadiazol-2-yl)cyclopentyl]methyl}-1,3,4-thiadiazol-2-yl)propanamide] registered an IC50 of 284 nM.

In turn, `C[C@@H](C(=O)Nc1nnc(C[C@@H]2CC[C@H](c3nnc(NC(=O)[C@H](C)c4cccnc4)s3)C2)s1)c1cccnc1` (single isomer, unassigned) [Example 37, 2-(pyridin-3-yl)-N-(5-{[(cis)-3-(5-{[2-(pyridin-3-yl)propanoyl]amino}-1,3,4-thiadiazol-2-yl)cyclopentyl]methyl}-1,3,4-thiadiazol-2-yl)propanamide] gave an IC50 of 19.4 nM.

In turn, `C[C@H](C(=O)Nc1nnc(C[C@@H]2CC[C@H](c3nnc(NC(=O)[C@H](C)c4cccnc4)s3)C2)s1)c1cccnc1` (single isomer, unassigned) [Example 38, 2-(pyridin-3-yl)-N-(5-{[(cis)-3-(5-{[2-(pyridin-3-yl)propanoyl]amino}-1,3,4-thiadiazol-2-yl)cyclopentyl]methyl}-1,3,4-thiadiazol-2-yl)propanamide] returned an IC50 of 136 nM.

The compound `Nc1nnc(C[C@@H]2CC[C@H](c3nnc(N)s3)C2)s1` (single isomer, unassigned) [Example 40] showed an IC50 of 4580 nM.

In the case of `Nc1nnc(C[C@H]2CC[C@@H](c3nnc(N)s3)C2)s1` (single isomer, unassigned) [Example 41], the IC50 was > 40400 nM.

The compound `CC(=O)Nc1nnc(C[C@@H]2CC[C@H](c3nnc(NC(=O)Cc4ccccc4)s3)C2)s1` (single isomer, unassigned) [Example 44, N-{5-[(cis)-3-{[5-(acetylamino)-1,3,4-thiadiazol-2-yl]methyl}cyclopentyl]-1,3,4-thiadiazol-2-yl}-2-phenylacetamide] returned an IC50 of 5.5 nM.

The compound `CC(=O)Nc1nnc(C[C@H]2CC[C@@H](c3nnc(NC(=O)Cc4ccccc4)s3)C2)s1` (single isomer, unassigned) [Example 45, N-{5-[(cis)-3-{[5-(acetylamino)-1,3,4-thiadiazol-2-yl]methyl}cyclopentyl]-1,3,4-thiadiazol-2-yl}-2-phenylacetamide] returned an IC50 of 295 nM.

Take `CC(=O)Nc1nnc([C@@H]2CC[C@H](Cc3nnc(NC(=O)Cc4cncnc4)s3)C2)s1` (single isomer, unassigned) [Example 50, N-[5-({(cis)-3-[5-(acetylamino)-1,3,4-thiadiazol-2-yl]cyclopentyl}methyl)-1,3,4-thiadiazol-2-yl]-2-(pyrimidin-5-yl)acetamide]: the IC50 worked out at 8750 nM.

For `CC(=O)Nc1nnc([C@H]2CC[C@@H](Cc3nnc(NC(=O)Cc4cncnc4)s3)C2)s1` (single isomer, unassigned) [Example 51, N-[5-({(cis)-3-[5-(acetylamino)-1,3,4-thiadiazol-2-yl]cyclopentyl}methyl)-1,3,4-thiadiazol-2-yl]-2-(pyrimidin-5-yl)acetamide], the IC50 is 64.5 nM.

The compound `CC(=O)Nc1nnc([C@H]2CC[C@@H](Cc3nnc(NC(=O)Cc4ccc(C)nc4)s3)C2)s1` (single isomer, unassigned) [Example 53, N-[5-({(cis)-3-[5-(acetylamino)-1,3,4-thiadiazol-2-yl]cyclopentyl}methyl)-1,3,4-thiadiazol-2-yl]-2-(6-methylpyridin-3-yl)acetamide] displayed an IC50 of 6.8 nM.

Turning to `CC(=O)Nc1nnc([C@@H]2CC[C@H](Cc3nnc(NC(=O)Cc4ccc(C)nc4)s3)C2)s1` (single isomer, unassigned) [Example 54, N-[5-({(cis)-3-[5-(acetylamino)-1,3,4-thiadiazol-2-yl]cyclopentyl}methyl)-1,3,4-thiadiazol-2-yl]-2-(6-methylpyridin-3-yl)acetamide], the IC50 worked out at 1280 nM.

In turn, `CC(=O)Nc1nnc(C[C@H]2CC[C@@H](c3nnc(NC(=O)Cc4ccccn4)s3)C2)s1` (single isomer, unassigned) [Example 56, N-{5-[(cis)-3-{[5-(acetylamino)-1,3,4-thiadiazol-2-yl]methyl}cyclopentyl]-1,3,4-thiadiazol-2-yl}-2-(pyridin-2-yl)acetamide] registered an IC50 of 2700 nM.

Compound `CC(=O)Nc1nnc(C[C@@H]2CC[C@H](c3nnc(NC(=O)Cc4ccccn4)s3)C2)s1` (single isomer, unassigned) [Example 57, N-{5-[(cis)-3-{[5-(acetylamino)-1,3,4-thiadiazol-2-yl]methyl}cyclopentyl]-1,3,4-thiadiazol-2-yl}-2-(pyridin-2-yl)acetamide] showed an IC50 of 21.4 nM.

The compound `CC(=O)Nc1nnc(C[C@@H]2CC[C@H](c3nnc(NC(=O)Cc4cncnc4)s3)C2)s1` (single isomer, unassigned) [Example 58, N-{5-[(cis)-3-{[5-(acetylamino)-1,3,4-thiadiazol-2-yl]methyl}cyclopentyl]-1,3,4-thiadiazol-2-yl}-2-(pyrimidin-5-yl)acetamide] registered an IC50 of 276 nM.
